We go through 1 compound from US20040259942A1, “Modulation of stat activity” (priority 2001, published 2004).

Each structure is given as a SMILES string. Entries after “also recorded” stand apart in the source; their conditions may differ.

One assay relates to STAT3. Briefly: EGF-induced STAT3 phosphorylation (Western blotting, Y705). It is filed as cell-based, human. The following applies: MDA-MB-468 cells; co-treatment 100 μM. The protocol:
EGF-R was immunoprecipitated from cell lysates and analysed by Western blotting tyrosine phosphorylation with an anti phosphotyrosine antibody (upper panel, top) and EGF-R content with an anti-EGF-R antibody (lower panel, top). Cell lysates were analysed in parallel for STAT3 phosphorylation with an antibody specific for STAT3 phosphorylated on Y705 (upper panel, bottom) and for STAT3 content with an antibody for STAT3 (lower panel, bottom). […] The inclusion of an anti-STAT3 antibody in duplicate binding reactions (even lanes) identifies STAT3-containing heterodimers (3:1), as indicated to the right of the panel. (c) COS-1 cells were transfected with an expression vector for STAT3, a STAT3-responsive luciferase reporter (SIE2-luc) and a control gene for β-galactosidase. […] After 6 hours cells were harvsted and reporter gene expression analysed. Results are normalised against β-galactosidase values and expressed as averages +/−SD (n=3).
Background: A western blot detects proteins with antibodies after separation by electrophoresis.

For the next assay, the system named is COS1 cells. Put plainly: Cell proliferation assay (cell counting). It is filed as cell-based, simian. The conditions noted are these: cells expressing low levels of STAT proteins; 48 hours. As to the method: (§1) Equal numbers of BR293, MCF-10F, MCF-7, MDA-MB-468, HKEK293 and COS1 cells were seeded in the appropriate growth medium into 10 cm dishes. Cells were allowed to grow in the presence of various concentrations of OdDHL or OHHL for 24 or 48 hours. For the 48-hour time points, fresh medium containing the appropriate inhibitor was applied to the cells after 24 hours. Controls were allowed to grow for 48 hours in the absence of inhibitor. Thereafter, all the cells were washed twice with ice cold PBS, harvested and counted under a phase-contrast microscope. Values are expressed as averages ±S.D. (n=3).

Another assay has as its target T1, JAK2 (Homo sapiens, UniProt O60674).
T1 construct: endogenous in cells; host or cells: BR293
Put plainly: Serum-induced JAK2 tyrosine phosphorylation (immunoblot). It is filed as cell-based. The following applies: preliminary data, unpublished. As to the method: For immunoprecipitation and immunoblotting experiments, cells were grown to confluence in 10 cm dishes and maintained in full medium or starved in serum-free medium overnight before the application of appropriate stimuli. Lysates were prepared in TBSN buffer (50 mM Tris-HCl pH7.5, 150 mM NaCl, 1 mM EDTA, 1% NP-40) supplemented with protease inhibitors (1 mM Na3 VO4, 10 mM Na4P2O7, 10 mM NaF, 5 mM EGTA, 10 mM Benzamidine, 0.2 mM PMSF and 1 μg/ml each of leupeptin, aprotinin, pepstatin). Lysates were cleared by centrifugation at 16,000×g for 10 minutes and used directly for immunoprecipitations or stored at −20° C. for further use.
Equal amounts of lysates were incubated with the appropriate antibody for 2 hours at 4° C.
Immune complexes were then allowed to bind to protein A-Sepharose beads for 1 hour at 4° C. and collected by centrifugation. Immunoprecipitates were washed three times in 100 mM Tris-HC1 pH 7.5, […], 1 mM EDTA, 0.1 mM PMSF, 0.5% NP-40. Thereafter, samples were taken up in sodium dodecyl sulphate (SDS) loading buffer and boiled for 5 min.
Samples were separated by electrophoresis through 6% polyacrylamide-SDS gels. Proteins were then transferred to polyvinylidene difluoride (PVDF) membranes with a semi-dry electroblotting apparatus. […]

Another assay relates to MCF-10F cells. Put plainly: Cell proliferation assay (cell counting). It counts as cell-based, human. The conditions noted are these: non-tumorigenic breast epithelial cells; 48 hours. The protocol: Breast cancer cell lines (BR293, MCF-7 and MDA-MB-468) were maintained in Minimum Essential Medium Eagle (MEM, Sigma) supplemented with 10% foetal calf serum (FCS), 1% MEM non-essential amino acids, 1% glutamine and 1% penicillin-streptomycin at 37° C. under 5% CO2. […] These cell lines are well-known, and widely available to persons in the field. In particular, the following lines are deposited with the American Type Culture Collection (ATTC) with the following identifying codes:
as §1

In the next assay the target is T2, ErbB1 (Homo sapiens, UniProt P00533).
T2 construct: Lysates were prepared, from which ErbB1 proteins were collected as immune complexes; endogenous in cells; host or cells: MDA-MB-468
Put plainly: Tyrosine phosphorylation of ErbB1 (EGF-R): immunoprecipitation and anti-phosphotyrosine immunoblot. It counts as cell-based. The following applies: MDA-MB-468 cells.

Assay [1] deals with autocrine factor release from BR293 cells. Briefly: Autocrine factor release: CM from pre-treated serum-stimulated cells tested for STAT3 phosphorylation. It is filed as cell-based, human. The conditions noted are these: 100 μM (FIG. 18d). As to the method:
OdDHL blocks the autocrine release of mitogens from BC cells (a) Equal numbers of BR293 cells were cultured in MEM alone, serum-free MEM conditioned by serum-stimulated BR293 cells for 2 hours, or the same supplemented with 5% FCS, as indicated. After 24 hours [^3H]-thymidine was added to the medium. After a further 18 hours, cells were harvested and analysed for incorporation of ^3H. Error bars denote SD (n=4). (b) BR293 cells were serum-starved (lane 1) or starved and stimulated with 10% FCS for 2 hours directly (lane 2) or after pretreatment with α-amanitin (1004/ml) for 2.5 hours (lane 3) or actinomycin D ([…]) for 10 min (lane 4). […] (c) BR293 cells were serum-starved (lane 1) or starved and stimulated with 10% FCS alone for 2 hours (lane 2), with serum-free CM alone for 15 min (lane 5) or in the presence of increasing 100 μM AG490 (lanes 3 and 6) or 100 μM OdDHL (lanes 4 and 7). Cell lysates were prepared and analysed by Western blotting as described in the legend to FIG. 1a. (d) BR293 cells were stimulated with 10% FCS in the presence of 100 μM OHHL (lane 1) or OdDHL (lane 2). After 2 hours the cells were washed and incubated for a further 2 hours in serum-free MEM. […] Lysates were prepared from all the cells and analysed by Western blotting as described in the legend to FIG. 1a.

T2 sequence (P00533 25-1210): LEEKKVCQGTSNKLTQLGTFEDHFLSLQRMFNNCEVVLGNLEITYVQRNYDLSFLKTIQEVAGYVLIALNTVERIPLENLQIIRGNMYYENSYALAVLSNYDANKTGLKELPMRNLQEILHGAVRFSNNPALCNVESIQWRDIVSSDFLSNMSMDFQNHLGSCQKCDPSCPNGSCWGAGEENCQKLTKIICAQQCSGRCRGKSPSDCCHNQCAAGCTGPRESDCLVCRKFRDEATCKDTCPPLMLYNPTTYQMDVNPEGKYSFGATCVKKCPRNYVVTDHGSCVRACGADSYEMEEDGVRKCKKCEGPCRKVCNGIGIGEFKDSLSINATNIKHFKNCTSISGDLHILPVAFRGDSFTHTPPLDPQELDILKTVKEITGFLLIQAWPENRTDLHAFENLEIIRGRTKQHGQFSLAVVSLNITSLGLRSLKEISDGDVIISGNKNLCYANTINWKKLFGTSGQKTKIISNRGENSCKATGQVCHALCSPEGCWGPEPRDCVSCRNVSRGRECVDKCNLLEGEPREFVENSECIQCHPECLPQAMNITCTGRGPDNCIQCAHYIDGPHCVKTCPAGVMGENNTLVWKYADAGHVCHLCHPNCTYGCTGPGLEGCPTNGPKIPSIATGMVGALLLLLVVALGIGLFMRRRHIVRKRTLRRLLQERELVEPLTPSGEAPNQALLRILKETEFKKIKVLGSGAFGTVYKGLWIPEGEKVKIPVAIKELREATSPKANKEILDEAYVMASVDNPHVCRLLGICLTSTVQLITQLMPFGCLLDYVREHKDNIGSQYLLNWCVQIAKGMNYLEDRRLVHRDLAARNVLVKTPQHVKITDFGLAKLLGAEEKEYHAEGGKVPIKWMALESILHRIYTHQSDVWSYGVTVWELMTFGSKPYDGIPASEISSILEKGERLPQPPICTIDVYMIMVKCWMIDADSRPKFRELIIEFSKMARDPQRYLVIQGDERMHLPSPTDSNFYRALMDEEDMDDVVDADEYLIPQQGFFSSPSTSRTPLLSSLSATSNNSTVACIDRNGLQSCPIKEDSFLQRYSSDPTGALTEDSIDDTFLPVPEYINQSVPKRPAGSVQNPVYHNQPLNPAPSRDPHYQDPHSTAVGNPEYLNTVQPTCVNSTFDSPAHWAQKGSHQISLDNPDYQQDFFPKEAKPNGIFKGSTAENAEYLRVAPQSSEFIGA
T1 sequence (O60674 whole entry): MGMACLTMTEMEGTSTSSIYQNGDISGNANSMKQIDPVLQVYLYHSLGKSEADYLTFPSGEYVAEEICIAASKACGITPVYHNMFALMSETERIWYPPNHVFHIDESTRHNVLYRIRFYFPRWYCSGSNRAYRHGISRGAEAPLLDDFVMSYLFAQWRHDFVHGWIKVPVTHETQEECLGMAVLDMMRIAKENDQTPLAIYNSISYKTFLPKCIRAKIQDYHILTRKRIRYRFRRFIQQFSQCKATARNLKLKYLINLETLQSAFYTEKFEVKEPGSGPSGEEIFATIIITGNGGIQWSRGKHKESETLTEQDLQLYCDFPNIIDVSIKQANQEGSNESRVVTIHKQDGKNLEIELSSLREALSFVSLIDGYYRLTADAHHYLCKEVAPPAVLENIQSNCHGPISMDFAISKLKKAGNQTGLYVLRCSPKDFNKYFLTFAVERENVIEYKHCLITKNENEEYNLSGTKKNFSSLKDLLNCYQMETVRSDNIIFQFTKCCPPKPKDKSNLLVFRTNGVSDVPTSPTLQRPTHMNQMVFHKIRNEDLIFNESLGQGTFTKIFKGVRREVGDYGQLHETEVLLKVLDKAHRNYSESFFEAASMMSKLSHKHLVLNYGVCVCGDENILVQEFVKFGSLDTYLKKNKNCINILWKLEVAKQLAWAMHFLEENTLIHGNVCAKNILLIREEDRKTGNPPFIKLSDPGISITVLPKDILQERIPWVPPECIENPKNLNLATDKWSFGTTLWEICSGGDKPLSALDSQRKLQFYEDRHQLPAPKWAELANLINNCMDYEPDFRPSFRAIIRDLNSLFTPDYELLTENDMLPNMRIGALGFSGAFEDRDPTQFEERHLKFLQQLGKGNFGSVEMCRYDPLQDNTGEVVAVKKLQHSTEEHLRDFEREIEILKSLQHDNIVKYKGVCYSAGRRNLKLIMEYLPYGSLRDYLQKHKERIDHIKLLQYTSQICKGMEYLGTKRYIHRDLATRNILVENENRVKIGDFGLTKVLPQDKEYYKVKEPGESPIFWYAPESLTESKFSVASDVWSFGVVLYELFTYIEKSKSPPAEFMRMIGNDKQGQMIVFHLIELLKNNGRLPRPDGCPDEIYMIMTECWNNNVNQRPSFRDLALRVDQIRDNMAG
Protocol for ErbB1: Immune complexes were then allowed to bind to protein A-Sepharose beads for 1 hour at 4° C. and collected by centrifugation. Immunoprecipitates were washed three times in 100 mM Tris-HC1 pH 7.5, 100 nM NaCl, 1 mM EDTA, 0.1 mM PMSF, 0.5% NP-40. Thereafter, samples were taken up in sodium dodecyl sulphate (SDS) loading buffer and boiled for 5 min.

Turning to `CCCCCCCCCC(=O)CC(=O)N[C@H]1CCOC1=O` [OdDHL, N-(3-oxo-dodecanoyl)-L-homoserine lactone], the “STAT3 phosphorylation in response to EGF” value in the assay on STAT3 is “augmented”. Further, the effect on proliferation result in the assay with COS1 cells is recorded as “unaffected”; in the assay with MCF-10F cells, “slight”. At JAK2, the “JAK2 phosphorylation in serum-stimulated cells” value was “does not interfere with JAK2 phosphorylation”. On ErbB1 (100 μM and even at lower concentrations (101M as printed)), the “receptor tyrosine phosphorylation in response to EGF stimulation” value is reported as “potentiated receptor tyrosine phosphorylation in response to EGF stimulation several fold”. For the same compound, at ErbB1 (OdDHL alone at 100 μM), the “tyrosine phosphorylation of the EGF-R in unstimulated cells” value is “caused an increase in detectable tyrosine phosphorylation of the EGF-R”. The “STAT3 phosphorylation induced by CM from serum-stimulated cells pre-treated with the compound” value in assay [1] is listed as “unable to stimulate STAT3 phosphorylation; also recorded: failed to induce STAT3 phosphorylation”.
